Test results: patent US9623021B2, “Nuclear receptor binding agents” (GTX, Inc., priority 2007, dated 2017)

Key:
[1] = system: high fat diet fed obese mice; experiment: High fat diet induced obesity model, treatment study (study 3); format: in vivo, C57BL6 male mice; details: high fat diet 6 weeks, then 30 mg/kg/day s.c.
Protocol: For the treatment obesity study (where the animals were fed with high fat diet for six weeks prior to beginning drug treatment for 18 weeks), MRI scans were performed at weeks 0, 6, 12, 18 and 24.
As the first two studies were designed to prevent obesity (i.e. animals were fed with a high fat diet and treated simultaneously), a subsequent study was conducted to evaluate the ability of 12u to affect body composition in mice that were already fed with the high fat diet and were obese. Mice were divided into three groups with one group fed with normal diet (control) and the other two groups fed with the high fat diet for 6 weeks. […] All the animals were maintained in their respective diets during the entire course of the study.

[2] = system: LNCaP cells and human prostate stromal cells xenograft; experiment: LNCaP-stromal cell xenograft tumor growth; format: in vivo, nude mice; details: 30 mg/kg/day for 21 days, by day 21
Protocol: Prostate tumor xenografts were established with LNCaP cells and human prostate stromal cells in nude mice to establish the in vivo anti-proliferative effects of these ER-β NRBAs. A 4:1 ratio (based on cell number) of LNCaP:stroma cells was injected subcutaneously in nude mice and allowed to grow until they attained 100 mm^3 in volume, as measured by calipers. […] Tumor volumes were measured twice a week and percent tumor volume calculated, after 10, 14 and 21 days.

ovariectomized mice = experiment: Ovariectomy-induced obesity model (postmenopausal obesity); format: in vivo, female C57BL6 mice; details: OVX mice
Protocol: For the ovariectomy-induced obesity model, 6 week old female C57BL6 mice were sham operated or ovariectomized and the study was carried out for 9 weeks as indicated above.
Since it was shown that β-SERMs affected body composition in an animal model of high fat diet-induced obesity, they might also be effective in an animal model of postmenopausal obesity.

ER-α = ER-α (Rattus norvegicus (Rat), UniProt P06211); experiment: Transient transfection and reporter gene assay, ER-α, HEK-293 cells (Example 22A); format: cell-based; details: ERE-LUC
Protocol: Human estrogen receptors (ER-α and ER-β) were cloned from prostate cDNA into a pCR3.1 plasmid vector backbone. PGC-1 was cloned into mammalian two hybrid vector pACT. ER-β H475 was mutated to alanine using site-directed mutagenesis. Sequencing was performed to determine the absence of any non specific mutations. SHP promoter (−572 to +10) (26) was cloned into pGL3 basic LUC reporter vector and human FXR was cloned into pCR3.1. HEK-293 cells were plated at 100,000 cells per well of a 24 well plate in […] (DMEM)+5% charcoal-stripped fetal bovine serum (csFBS). The cells were transfected using Lipofectamine (Invitrogen, Carlsbad, Calif.) with 0.25 μg ERE-LUC, 0.02 μg CMV-LUC (renilla luciferase) and 12.5 ng of rat ER-α or 25 ng rat ER-β. […] Luciferase assays were performed 48 hrs after transfection.
To determine if the selectivity in ER binding also translated into ER-β-selective activity, transient transactivation assays were performed in HEK-293 cells transfected with plasmids encoding ER-α or ER-β and ERE-LUC. The cells were treated with varying concentrations of the ligands and their EC50 values were determined.

PPAR-α = PPAR-α transactivation (PPRE-LUC) in HEK-293 cells co-transfected with ER-β; format: cell-based; details: FIG. 12A right panel
Protocol: (§1) FIG. 12 depict the effect of ER-β ligand on PPAR-γ function through ligand binding domain (LBD). (A). HEK-293 cells were transfected with 0.25 μg PPRE-LUC, 5 ng CMV-renilla LUC and the indicated receptors (PPAR-γ and ER-β for the left panel and PPAR-α and ER-β for the right panel). The cells were treated 24 hrs after transfection with the indicated ligands and harvested 48 hrs after transfection and firefly luciferase activity was measured and normalized to renilla luciferase. (B). H475 in ER-β LBD is important for its function. H475 in ER-β LBD was mutated to alanine (A) using a site directed mutagenesis kit. Transactivation assay was performed as described in panel A in HEK-293 cells with a titration of ER-β ligands in wild type or ER-β H475A. (C). […] The cells were treated 24 hrs after transfection with the indicated ligands and harvested 48 hrs after transfection and firefly luciferase activity was measured and normalized to renilla luciferase. […] The cells were treated 24 hrs after transfection with the indicated ligands and harvested 48 hrs after transfection and firefly luciferase activity was measured and normalized to renilla luciferase. […] The cells were treated 24 hrs after transfection with the indicated ligands and harvested 48 hrs after transfection and firefly luciferase activity was measured and normalized to renilla luciferase. […]

[3] = system: LNCaP prostate cancer cells; experiment: LNCaP prostate cancer cell proliferation (3H thymidine incorporation); format: cell-based; details: treated for 6 days, FIG. 21
Protocol: The effects of treatment of an ER-β selective NRBA of this invention on cancer cell proliferation was examined using LNCaP prostate cancer cells and C-26 colon cancer cells. LNCaP or C-26 cells were plated in growth medium in 24 well and 6 well plates, respectively. LNCaP cells were treated for 6 days and C-26 cells were treated for 3 days at the indicated concentration. ^3H thymidine incorporation was measured at the end of treatment as an indicator of cell proliferation.

[4] = biological target: ERα ligand binding domain (Homo sapiens (Human), UniProt P03372); experiment: Competitive [3H]-estradiol radioligand binding, ERα (Example 21)
ERα ligand binding domain, sequence (P03372 whole entry, looked up, species assumed, the tested form may be a part): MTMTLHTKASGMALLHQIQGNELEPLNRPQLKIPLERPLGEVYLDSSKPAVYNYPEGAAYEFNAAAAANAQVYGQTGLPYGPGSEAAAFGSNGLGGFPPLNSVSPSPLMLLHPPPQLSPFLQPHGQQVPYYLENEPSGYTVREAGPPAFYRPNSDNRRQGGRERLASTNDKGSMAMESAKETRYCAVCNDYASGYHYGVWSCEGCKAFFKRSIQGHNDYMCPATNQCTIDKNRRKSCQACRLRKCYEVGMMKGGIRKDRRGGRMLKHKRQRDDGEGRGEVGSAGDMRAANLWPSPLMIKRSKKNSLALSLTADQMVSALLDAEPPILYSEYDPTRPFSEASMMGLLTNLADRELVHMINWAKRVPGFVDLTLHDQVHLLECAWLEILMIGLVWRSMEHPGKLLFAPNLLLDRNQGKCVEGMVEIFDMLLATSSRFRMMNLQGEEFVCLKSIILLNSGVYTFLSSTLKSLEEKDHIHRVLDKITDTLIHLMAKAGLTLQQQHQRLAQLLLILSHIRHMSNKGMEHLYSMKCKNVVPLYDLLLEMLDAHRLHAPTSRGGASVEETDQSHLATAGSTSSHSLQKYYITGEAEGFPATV

PPAR-γ = PPAR-γ transactivation (PPRE-LUC) in HEK-293 cells co-transfected with ER-β; format: cell-based; details: FIG. 12A left panel
Protocol: as §1

O=c1c2c(O)cc(O)cc2c(Br)cn1-c1ccc(O)cc1 [Compound 12u, 4-bromo-6,8-dihydroxy-2-(4-hydroxyphenyl)isoquinolin-1(2H)-one]
body weight ([1]; FIG. 10A): prevented further gains in body weight
body fat increase (MRI) ([1]; FIG. 10B): reduced
tumor growth (percent tumor volume) [2]: inhibited the growth of tumor significantly
body weight gain (ovariectomized mice; 9 weeks, FIG. 11A): did not inhibit body weight gain
feed consumption (ovariectomized mice; FIG. 11B): increased the feed consumption
fat mass (MRI) (ovariectomized mice; FIG. 11C left panel): completely prevented the increase in fat mass
lean mass (MRI) (ovariectomized mice; FIG. 11C right panel): significantly increased lean mass
WAT weight (ovariectomized mice; FIG. 11D): completely inhibited the WAT accrued due to OVX
uterine weight (ovariectomized mice; FIG. 11D): without affecting uterine weight
function at ER-α in transactivation (ER-α): agonists
WY14643 induced PPAR-α transactivation (PPAR-α): did not affect
growth of LNCaP prostate cancer cells [3]: significantly inhibited the growth
Ki [4]: 32 nM
troglitazone-induced PPAR-γ activity (PPAR-γ): partially inhibited
